Test results as given in patent US20020137929A1, “1 - (3-heterocyclylphenyl) isothiourea, -isourea, -guanidine and -amidine herbicidal agents” (Intellectual Property Department, BASF Aktiengesellschaft, priority 1998, published 2002).

Assays:
[1] = tested on: IPOHE (Morningglory, Ivyleaf); assay: Preemergence herbicidal evaluation; assay type: in vivo, Ipomoea hederacea; conditions: rated 4-5 weeks after treatment
Method in brief: (§1)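 In this greenhouse assay, monocot and dicot seeds are planted in soil and treated prior to emergence with an aqueous acetone spray (about 0.0156-0.500 kg/ha). Plants are assessed visually against control on a 0-9 scale after 4-5 weeks.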

[2] = tested on: SETVI (Foxtail, Green); assay: Preemergence herbicidal evaluation; assay type: in vivo, Setaria viridis; conditions: rated 4-5 weeks after treatment
Method in brief: as §1

[3] = tested on: SAGPY (Arrowhead (Pygmaea)); assay: Preemergence weed control under flooded paddy conditions; assay type: in vivo, Sagittaria pygmaea; conditions: rated 3-4 weeks after treatment
Method in brief: (§2)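 Flooded-pot preemergence screen with silt loam and seeds in the upper 0.5 cm. Dose about 0.0313 to 0.500 kg/ha, delivered into flood water; visual 0-9 score after 3 to 4 weeks.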

[4] = tested on: ECHORC (Watergrass (Calif.)); assay: as above; assay type: in vivo, Echinochloa oryzoides; conditions: rated 3-4 weeks after treatment
Method in brief: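 Seeds or propagules sown in top 0.5 cm of silt loam soil, flooded 1.5 to 3 cm above surface throughout. Compound in 50/50 v/v aqueous/acetone pipetted into flood water at about 0.0313 to 0.500 kg/ha. Visual 0-9 rating versus control after three to four weeks in greenhouse.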

[5] = tested on: ORYSAT (Rice, Tebonnet); assay: Preemergence herbicidal evaluation; assay type: in vivo, Oryza sativa, (L.) Tebonnet; conditions: rated 4-5 weeks after treatment
Method in brief: as §1

[6] = tested on: CASOB (Sicklepod); assay: Preemergence herbicidal evaluation; assay type: in vivo, Cassia obtusifolia; conditions: rated 4-5 weeks after treatment
Method in brief: as §1

[7] = tested on: TRZAWR (Wheat, Winter, cv Riband); assay: Preemergence herbicidal evaluation; assay type: in vivo, Triticum aestivum; conditions: rated 4-5 weeks after treatment
Method in brief: as §1

[8] = tested on: AMBEL (Ragweed, Common); assay: Preemergence herbicidal evaluation; assay type: in vivo, Ambrosia artemisifolia; conditions: rated 4-5 weeks after treatment
Method in brief: as §1

[9] = tested on: CYPSE (Flatsedge); assay: Preemergence weed control under flooded paddy conditions; assay type: in vivo, Cyperus serotinus; conditions: rated 3-4 weeks after treatment
Method in brief: as §2

[10] = tested on: ABUTH (Velvetleaf); assay: Postemergence herbicidal evaluation; assay type: in vivo, Abutilon theophrasti; conditions: postemergence
Method in brief: (§3)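 Rate range approx. 0.0156–0.500 kg/ha. Foliar application at 40 psi to ~2-week seedlings; surfactant 0.5% TWEEN 20 in 50/50 acetone/water. Evaluation 4–5 wk post-treatment by 0–9 visual injury score, means of replicate tests.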

[11] = tested on: ORYSAT (Rice, Tebonnet); assay: Postemergence herbicidal evaluation; assay type: in vivo, Oryza sativa, (L.) Tebonnet; conditions: postemergence
Method in brief: as §3

[12] = tested on: CHEAL (Lambsquarters, Common); assay: Preemergence herbicidal evaluation; assay type: in vivo, Chenopodium album; conditions: rated 4-5 weeks after treatment
Method in brief: as §1

[13] = tested on: ZEAMX (Corn, Field); assay: Postemergence herbicidal evaluation; assay type: in vivo, Zea mays; conditions: postemergence
Method in brief: as §3

[14] = tested on: AMBEL (Ragweed, Common); assay: Postemergence herbicidal evaluation; assay type: in vivo, Ambrosia artemisifolia; conditions: postemergence
Method in brief: as §3

[15] = tested on: GALAP (Galium); assay: Preemergence herbicidal evaluation; assay type: in vivo, Galium aparine; conditions: rated 4-5 weeks after treatment
Method in brief: as §1

[16] = tested on: GLXMAW (Soybean, Williams); assay: Preemergence herbicidal evaluation; assay type: in vivo, Glycine max, (L.) Merr. cv Williams; conditions: rated 4-5 weeks after treatment
Method in brief: as §1

CCOC(=O)CN1C(=O)C(Cc2ccccc2OCC(=O)O)S/C1=N/c1cc(-n2c(=O)cc(C(F)(F)F)n(C)c2=O)c(F)cc1Cl (stereo not drawn) [Compound 113, 5-[o-(Carboxymethoxy)benzyl]-2-{{2-chloro-5-[3,6-dihydro-3-methyl-2,6-dioxo-4-(trifluoromethyl)-1(2H)-pyrimidinyl]-4-fluorophenyl}imino}-4-oxo-3-thiazolidineacetic acid, 3-ethyl ester]
Preemergence herbicidal rating IPOHE ([1]; rate 0.0156 kg/ha): 0.0 | Preemergence herbicidal rating IPOHE ([1]; rate 0.0313 kg/ha): 0.0 | Preemergence herbicidal rating IPOHE ([1]; rate 0.0625 kg/ha): 0.0 | Preemergence herbicidal rating IPOHE ([1]; rate 0.1250 kg/ha): 0.0 | Preemergence herbicidal rating IPOHE ([1]; rate 0.2500 kg/ha): 1.0 | Preemergence herbicidal rating SETVI ([2]; rate 0.0156 kg/ha): 0.0 | Preemergence herbicidal rating SETVI ([2]; rate 0.0313 kg/ha): 0.0 | Preemergence herbicidal rating SETVI ([2]; rate 0.0625 kg/ha): 0.0 | Preemergence herbicidal rating SETVI ([2]; rate 0.1250 kg/ha): 0.0 | Preemergence herbicidal rating SETVI ([2]; rate 0.2500 kg/ha): 1.0 | SAGPY herbicidal effect rating ([3]; 0.0313 kg/ha): 4.0 | SAGPY herbicidal effect rating ([3]; 0.0625 kg/ha): 6.0 | SAGPY herbicidal effect rating ([3]; 0.1250 kg/ha): 9.0 | SAGPY herbicidal effect rating ([3]; 0.2500 kg/ha): 9.0 | ECHORC herbicidal effect rating ([4]; 0.0313 kg/ha): 4.0 | ECHORC herbicidal effect rating ([4]; 0.0625 kg/ha): 4.0 | ECHORC herbicidal effect rating ([4]; 0.1250 kg/ha): 5.0 | ECHORC herbicidal effect rating ([4]; 0.2500 kg/ha): 7.0 | Preemergence herbicidal rating ORYSAT ([5]; rate 0.0156 kg/ha): 0.0 | Preemergence herbicidal rating ORYSAT ([5]; rate 0.0313 kg/ha): 0.0 | Preemergence herbicidal rating ORYSAT ([5]; rate 0.0625 kg/ha): 0.0 | Preemergence herbicidal rating ORYSAT ([5]; rate 0.1250 kg/ha): 0.0 | Preemergence herbicidal rating ORYSAT ([5]; rate 0.2500 kg/ha): 0.0 | Preemergence herbicidal rating CASOB ([6]; rate 0.0156 kg/ha): 0.0 | Preemergence herbicidal rating CASOB ([6]; rate 0.0313 kg/ha): 0.0 | Preemergence herbicidal rating CASOB ([6]; rate 0.0625 kg/ha): 0.0 | Preemergence herbicidal rating CASOB ([6]; rate 0.1250 kg/ha): 0.0 | Preemergence herbicidal rating CASOB ([6]; rate 0.2500 kg/ha): 0.0 | Preemergence herbicidal rating TRZAWR ([7]; rate 0.0156 kg/ha): 0.0 | Preemergence herbicidal rating TRZAWR ([7]; rate 0.0313 kg/ha): 0.0 | Preemergence herbicidal rating TRZAWR ([7]; rate 0.0625 kg/ha): 0.0 | Preemergence herbicidal rating TRZAWR ([7]; rate 0.1250 kg/ha): 0.0 | Preemergence herbicidal rating TRZAWR ([7]; rate 0.2500 kg/ha): 0.0 | Preemergence herbicidal rating AMBEL ([8]; rate 0.0156 kg/ha): 0.0 | Preemergence herbicidal rating AMBEL ([8]; rate 0.0313 kg/ha): 0.0 | Preemergence herbicidal rating AMBEL ([8]; rate 0.0625 kg/ha): 0.0 | Preemergence herbicidal rating AMBEL ([8]; rate 0.1250 kg/ha): 0.0 | Preemergence herbicidal rating AMBEL ([8]; rate 0.2500 kg/ha): 2.0 | CYPSE herbicidal effect rating ([9]; 0.0313 kg/ha): 0.0 | CYPSE herbicidal effect rating ([9]; 0.0625 kg/ha): 0.0 | CYPSE herbicidal effect rating ([9]; 0.1250 kg/ha): 0.0 | CYPSE herbicidal effect rating ([9]; 0.2500 kg/ha): 0.0 | Herbicidal rating ABUTH ([10]; rate 0.0158 kg/ha): 9.0 | Herbicidal rating ABUTH ([10]; rate 0.0315 kg/ha): 9.0 | Herbicidal rating ABUTH ([10]; rate 0.0630 kg/ha): 9.0 | Herbicidal rating ORYSAT ([11]; rate 0.0158 kg/ha): 2.0 | Herbicidal rating ORYSAT ([11]; rate 0.0315 kg/ha): 2.0 | Herbicidal rating ORYSAT ([11]; rate 0.0630 kg/ha): 2.5 | Preemergence herbicidal rating CHEAL ([12]; rate 0.0156 kg/ha): 6.0 | Preemergence herbicidal rating CHEAL ([12]; rate 0.0313 kg/ha): 7.0 | Preemergence herbicidal rating CHEAL ([12]; rate 0.0625 kg/ha): 0.0 | Preemergence herbicidal rating CHEAL ([12]; rate 0.1250 kg/ha): 9.0 | Preemergence herbicidal rating CHEAL ([12]; rate 0.2500 kg/ha): 9.0 | Herbicidal rating ZEAMX ([13]; rate 0.0158 kg/ha): 4.0 | Herbicidal rating ZEAMX ([13]; rate 0.0315 kg/ha): 4.5 | Herbicidal rating ZEAMX ([13]; rate 0.0630 kg/ha): 4.5 | Herbicidal rating AMBEL ([14]; rate 0.0158 kg/ha): 5.0 | Herbicidal rating AMBEL ([14]; rate 0.0315 kg/ha): 9.0 | Herbicidal rating AMBEL ([14]; rate 0.0630 kg/ha): 9.0 | Preemergence herbicidal rating GALAP ([15]; rate 0.0156 kg/ha): 0.0 | Preemergence herbicidal rating GALAP ([15]; rate 0.0313 kg/ha): 0.0 | Preemergence herbicidal rating GALAP ([15]; rate 0.0625 kg/ha): 0.0 | Preemergence herbicidal rating GALAP ([15]; rate 0.1250 kg/ha): 1.0 | Preemergence herbicidal rating GALAP ([15]; rate 0.2500 kg/ha): 3.0 | Preemergence herbicidal rating GLXMAW ([16]; rate 0.0156 kg/ha): 0.0 | Preemergence herbicidal rating GLXMAW ([16]; rate 0.0313 kg/ha): 1.0 | Preemergence herbicidal rating GLXMAW ([16]; rate 0.0625 kg/ha): 0.0 | Preemergence herbicidal rating GLXMAW ([16]; rate 0.1250 kg/ha): 0.0 | Preemergence herbicidal rating GLXMAW ([16]; rate 0.2500 kg/ha): 2.0
